Experimental data: PMC10928841, “Ames test study designs for nitrosamine mutagenicity testing: qualitative and quantitative analysis of key assay parameters” (Mutagenesis, 2023)
Read-outs that look alike come from different tables or passages of the source.

Assays:
CYP2E1 [1] = molecular target: CYP2E1 (Rattus norvegicus, UniProt P05182); experiment: Effect of vehicle on CYP2E1 activity of rat liver S9 (chlorzoxazone 6-hydroxylation); conditions: induced rat liver S9; vehicle 7.7% (v/v); chlorzoxazone 10 µM; 30 min
Sequence of CYP2E1 (Rattus norvegicus, UniProt P05182) (P05182 whole entry): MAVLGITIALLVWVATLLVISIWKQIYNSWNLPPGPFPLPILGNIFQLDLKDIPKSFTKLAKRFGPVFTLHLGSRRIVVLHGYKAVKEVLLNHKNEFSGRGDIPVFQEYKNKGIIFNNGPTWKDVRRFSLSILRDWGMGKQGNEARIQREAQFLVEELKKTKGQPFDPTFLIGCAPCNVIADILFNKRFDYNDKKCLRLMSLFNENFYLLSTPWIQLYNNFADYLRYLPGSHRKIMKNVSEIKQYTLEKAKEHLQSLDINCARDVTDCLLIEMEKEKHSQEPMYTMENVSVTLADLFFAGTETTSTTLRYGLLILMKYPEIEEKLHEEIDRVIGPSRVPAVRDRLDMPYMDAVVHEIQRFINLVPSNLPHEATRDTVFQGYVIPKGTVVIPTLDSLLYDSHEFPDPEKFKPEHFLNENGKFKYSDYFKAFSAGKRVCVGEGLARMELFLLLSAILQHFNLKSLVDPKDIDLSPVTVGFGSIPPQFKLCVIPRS

CYP2E1 [2] = molecular target: CYP2E1 (Mesocricetus auratus, UniProt P51581); experiment: Effect of vehicle on CYP2E1 activity of hamster liver S9 (chlorzoxazone 6-hydroxylation); conditions: vehicle 7.7% (v/v), chlorzoxazone 10 µM, 30 min; for effect on conversion of chlorzoxazone to 6-hydroxychlorzoxazone compared with water: induced hamster liver S9; for reduction of 6-hydroxychlorzoxazone formation compared with water: Aroclor-induced hamster liver S9
Sequence of CYP2E1 (Mesocricetus auratus, UniProt P51581) (P51581 whole entry): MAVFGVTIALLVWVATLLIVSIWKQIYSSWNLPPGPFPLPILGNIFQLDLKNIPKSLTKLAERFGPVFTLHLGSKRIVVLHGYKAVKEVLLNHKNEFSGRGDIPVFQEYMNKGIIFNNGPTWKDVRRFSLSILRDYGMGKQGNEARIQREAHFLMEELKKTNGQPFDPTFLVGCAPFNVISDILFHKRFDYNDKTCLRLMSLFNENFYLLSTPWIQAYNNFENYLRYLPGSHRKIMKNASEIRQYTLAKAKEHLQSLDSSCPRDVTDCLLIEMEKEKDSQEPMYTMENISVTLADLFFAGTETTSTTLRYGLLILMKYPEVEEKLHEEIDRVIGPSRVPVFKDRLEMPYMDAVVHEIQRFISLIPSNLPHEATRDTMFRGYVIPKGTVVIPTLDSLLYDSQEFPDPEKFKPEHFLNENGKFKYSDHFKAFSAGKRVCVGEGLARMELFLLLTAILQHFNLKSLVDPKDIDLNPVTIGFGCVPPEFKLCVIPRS

[3] = system: S. typhimurium and E. coli tester strains; experiment: Benchmark dose (BMD) modelling of positive Ames test dose-response data; format: cell-based, Salmonella typhimurium and Escherichia coli; conditions: BMR 100%; all positive combinations of vehicle, method, strain and S9
Procedure: Benchmark dose analyses were carried out using the freely available PROAST R-package (version 70.3) (http://www.proast.nl). Ames test dose–response data (with cytotoxic test concentrations removed) were analysed using the exponential model family recommended by EFSA for the assessment of continuous (geno)toxicity dose–response data [37]. Where combined analyses were used, dose–response relationships were analysed using the assay conditions discriminating the subgroups (i.e. sub-study) as a covariate. To prevent overfitting, more complex models with additional parameters were only accepted if the goodness-of-fit exceeded the critical value at P < .05. PROAST outputs designate potency (i.e. the benchmark dose (BMD)) and its two-sided, 90% confidence interval (i.e. the BMDL and BMDU) as the ‘Critical Effect Dose’ (i.e. yielding a CED, CEDL, and CEDU), respectively, for each level of the covariate. Using the combined-covariate BMD approach [38], the model parameters that required estimation for each subgroup and those that could be considered constant across subgroups were established for the combined dataset. In general, the combined analyses presented here assumed that parameters for the maximum response (parameter c), log-steepness (parameter d) were equal for all subgroups, while the background response (parameter a), potency (parameter b), and within-group variation (var) were tested for subgroup dependence [39]. Model fits were used to visually evaluate the validity of the assumption of conserved shape. […]
To further understand the impact of different test parameters on test outcomes, BMD-derived potency/sensitivity rankings [38] were generated from the dose–response relationships for NDMA and NDEA. […] Instead, the purpose is to quantitatively provide a means to compare the potency/sensitivity of different assay conditions, that is, bacterial strain, S9 source, vehicle, and plate/pre-incubation methods, to inform on optimal study designs for robust/sensitive mutagenicity calls. […]

E. coli WP2uvrA (pKM101) [4] = conditions: for increase in mutant frequency at the limit concentration: 5000 µg/plate
Salmonella typhimurium = conditions: cited from earlier work
S. typhimurium TA98 = experiment: Ames test, pre-incubation method, TA98; conditions: vehicle acetonitrile, up to 5000 µg/plate
S. typhimurium TA1537 = experiment: Ames test, pre-incubation method, TA1537; conditions: S9 hamster, vehicle acetonitrile, up to 5000 µg/plate
E. coli WP2uvrA (pKM101) [5] = experiment: Ames test, pre-incubation method, WP2uvrA (pKM101); conditions: for increase in mutant frequency compared with vehicle controls: 5000 µg/plate
rat = system: rat; parameters: method as in PMID 4230610; conditions: historical data; cited from earlier work
S. typhimurium TA100 = experiment: Ames test, pre-incubation method, TA100
S. typhimurium TA1535 = experiment: Ames test, pre-incubation method, TA1535; conditions: hamster liver S9-mix, vehicle water, 5000 µg/plate
[6] = plate incorporation, rat liver S9-mix, vehicle methanol, E. coli WP2uvrA (pKM101)
[7] = plate incorporation, rat liver S9-mix, vehicle water, E. coli WP2uvrA (pKM101)
[8] = rat liver S9-mix, vehicle methanol

## C[S+](C)[O-] [DMSO, dimethylsulfoxide]
CYP2E1 [1]
  effect on conversion of chlorzoxazone to 6-hydroxychlorzoxazone compared with water: inhibit
CYP2E1 [2]
  effect on conversion of chlorzoxazone to 6-hydroxychlorzoxazone compared with water: inhibit

## CO [Methanol, methanol]
CYP2E1 [1]
  effect on conversion of chlorzoxazone to 6-hydroxychlorzoxazone compared with water: negligible effect
CYP2E1 [2]
  reduction of 6-hydroxychlorzoxazone formation compared with water: ~ 50%

## CCN(CC)N=O [NDEA, N-nitrosodiethylamine]
[3]
  range in sensitivity/potency (BMD100 confidence intervals) across positive datasets: ~ 100 fold
E. coli WP2uvrA (pKM101) [4]
  Ames test strain WP2*: +
E. coli WP2uvrA (pKM101) [4]; plate incorporation, rat liver S9-mix, all three vehicles water, methanol or DMSO, E. coli WP2uvrA (pKM101)
  concentration giving concentration-dependent increases in mutant frequency: ≥ 1500 µg/plate
Salmonella typhimurium; not tested in the current study
  mutagenicity in the absence of metabolic activation: non-mutagenic
S. typhimurium TA98; S9 hamster
  Ames test strain TA98: Toxic
S. typhimurium TA98; S9 rat
  Ames test strain TA98: Toxic
S. typhimurium TA1537
  Ames test strain TA1537: Toxic

## CN(C)N=O [NDMA, N-Nitrosodimethylamine]
[3]
  range in sensitivity/potency (BMD100 confidence intervals) across positive datasets: ~ 1000 fold
E. coli WP2uvrA (pKM101) [4]; [6]
  concentration giving an increase in revertant colonies compared with vehicle controls: 5000 µg/plate
E. coli WP2uvrA (pKM101) [4]; [7]
  concentration giving an increase in revertant colonies compared with vehicle controls: ≥ 1500 µg/plate
E. coli WP2uvrA (pKM101) [5]; rat liver S9, vehicle methanol
  increase in mutant frequency compared with vehicle controls: 2 fold
E. coli WP2uvrA (pKM101) [5]; rat liver S9, vehicle water
  increase in mutant frequency compared with vehicle controls: 2.6 fold

## CCN(C)N=O [NMEA, N-nitrosomethylethylamine]
[3]
  range in sensitivity/potency (BMD100 confidence intervals) across positive datasets: 1000 fold
E. coli WP2uvrA (pKM101) [4]; [6]
  concentration giving an increase in revertant colonies compared with vehicle controls: ≥ 1500 µg/plate
  increase in mutant frequency at the limit concentration: 4.3 fold
E. coli WP2uvrA (pKM101) [4]; [7]
  concentration giving an increase in revertant colonies compared with vehicle controls: ≥ 2500 µg/plate
  increase in mutant frequency at the limit concentration: 2.7 fold
Salmonella typhimurium; historical data
  Ames test (legacy result): negative
rat
  rodent cancer bioassay: positive
S. typhimurium TA100; hamster liver S9-mix, vehicle water, 5000 µg/plate
  fold-increase at the limit concentration: 32 fold
S. typhimurium TA100; [8]
  concentration giving a concentration-related increase in revertant colonies: ≥ 1500 µg/plate
S. typhimurium TA1535
  fold-increase at the limit concentration: 275 fold
E. coli WP2uvrA (pKM101) [5]; [8]
  concentration giving a positive response: 5000 µg/plate

## CC(C)=O [acetone]
CYP2E1 [1]
  effect on conversion of chlorzoxazone to 6-hydroxychlorzoxazone compared with water: negligible effect
CYP2E1 [2]
  reduction of 6-hydroxychlorzoxazone formation compared with water: ~ 75%

## CC#N [acetonitrile]
CYP2E1 [1]
  effect on conversion of chlorzoxazone to 6-hydroxychlorzoxazone compared with water: inhibit
CYP2E1 [2]
  effect on conversion of chlorzoxazone to 6-hydroxychlorzoxazone compared with water: inhibit
